Assay results reported in ChEMBL document CHEMBL3400129, “Novel hybrid nocodazole analogues as tubulin polymerization inhibitors and their antiproliferative activity” (Bioorg Med Chem Lett, 2015).

How the values were obtained:
A549 = assay: Cytotoxicity against human A549 cells; assay type: functional, cell-based
Tubulin = assay: Inhibition of tubulin polymerization (unknown origin); assay type: protein-complex assay, Homo sapiens
Tubulin (Homo sapiens) = Tubulin (Homo sapiens) (UniProt P68371+Q9H4B7+P0DPH7+P68366+Q13509+Q71U36+P04350+Q3ZCM7+P07437+P68363+Q9BQE3+Q6PEY2+Q13885+Q9BVA1+Q9BUF5); assay: Displacement of [3H]colchicine from tubulin (unknown origin) at 5 uM; assay type: protein-complex assay

IC50 (Tubulin) | inhibition (Tubulin (Homo sapiens)) | Structure (SMILES) | IC50 (A549)
> 20 µM | – | COC(=O)Nc1nc2ccc(C(=O)c3ccc(O)cc3O)cc2[nH]1 | > 100 µM
2.2 µM | 38% | COC(=O)Nc1nc2ccc(C(=O)c3ccc(OC)cc3O)cc2[nH]1 | > 100 µM
2 µM | 56% | COC(=O)Nc1nc2ccc(C(=O)c3sccc3O)cc2[nH]1 | 6 µM

Structure (SMILES) | IC50 (Tubulin) | inhibition (Tubulin (Homo sapiens)) | IC50 (A549)
COC(=O)Nc1nc2ccc(/C=C\c3cc(OC)c(OC)c(OC)c3)cc2[nH]1 | 1.6 µM | 39% | 12 µM
